Targets include D(3) dopamine receptor (Rattus norvegicus, UniProt P19020); D(1B) dopamine receptor (Rattus norvegicus, UniProt P25115); D(1A) dopamine receptor (Rattus norvegicus, UniProt P18901).
The next experiment deals with T1, D(4) dopamine receptor (Rattus norvegicus, UniProt P30729).
T1 sequence (P30729 whole entry): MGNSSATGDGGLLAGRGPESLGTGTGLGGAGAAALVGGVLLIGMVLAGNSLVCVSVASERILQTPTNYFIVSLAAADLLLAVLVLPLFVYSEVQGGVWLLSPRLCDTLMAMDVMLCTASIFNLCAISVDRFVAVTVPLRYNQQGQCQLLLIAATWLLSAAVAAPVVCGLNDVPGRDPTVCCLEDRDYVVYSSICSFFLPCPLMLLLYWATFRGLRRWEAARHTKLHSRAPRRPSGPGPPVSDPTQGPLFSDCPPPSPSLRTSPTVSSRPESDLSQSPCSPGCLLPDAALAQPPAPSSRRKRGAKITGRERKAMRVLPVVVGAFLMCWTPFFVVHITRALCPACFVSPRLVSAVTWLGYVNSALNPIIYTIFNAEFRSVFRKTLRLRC

The target of experiment [1] is 5-hydroxytryptamine receptor 6 (Rattus norvegicus, UniProt P31388).
In experiment [2] the target is 5-hydroxytryptamine receptor 7 (Rattus norvegicus, UniProt P32305).

Values joined by “and” are separate entries in the source; they are usually repeats but may differ in a detail not shown here. Equal entries are not always repeated.

Chain of D(3) dopamine receptor (P19020 whole entry): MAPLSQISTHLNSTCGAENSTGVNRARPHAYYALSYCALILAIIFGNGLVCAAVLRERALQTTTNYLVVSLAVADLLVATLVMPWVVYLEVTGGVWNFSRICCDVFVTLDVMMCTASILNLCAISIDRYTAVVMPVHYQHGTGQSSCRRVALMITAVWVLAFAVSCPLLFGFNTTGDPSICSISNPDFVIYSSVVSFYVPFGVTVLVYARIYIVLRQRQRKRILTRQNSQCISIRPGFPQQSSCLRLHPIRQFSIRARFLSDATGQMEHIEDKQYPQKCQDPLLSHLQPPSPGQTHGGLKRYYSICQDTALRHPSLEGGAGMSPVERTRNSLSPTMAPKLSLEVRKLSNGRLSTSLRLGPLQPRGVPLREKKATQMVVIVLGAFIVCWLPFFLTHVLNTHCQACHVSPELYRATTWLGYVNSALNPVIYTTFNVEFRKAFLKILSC
Chain of 5-hydroxytryptamine receptor 7 (P32305 whole entry): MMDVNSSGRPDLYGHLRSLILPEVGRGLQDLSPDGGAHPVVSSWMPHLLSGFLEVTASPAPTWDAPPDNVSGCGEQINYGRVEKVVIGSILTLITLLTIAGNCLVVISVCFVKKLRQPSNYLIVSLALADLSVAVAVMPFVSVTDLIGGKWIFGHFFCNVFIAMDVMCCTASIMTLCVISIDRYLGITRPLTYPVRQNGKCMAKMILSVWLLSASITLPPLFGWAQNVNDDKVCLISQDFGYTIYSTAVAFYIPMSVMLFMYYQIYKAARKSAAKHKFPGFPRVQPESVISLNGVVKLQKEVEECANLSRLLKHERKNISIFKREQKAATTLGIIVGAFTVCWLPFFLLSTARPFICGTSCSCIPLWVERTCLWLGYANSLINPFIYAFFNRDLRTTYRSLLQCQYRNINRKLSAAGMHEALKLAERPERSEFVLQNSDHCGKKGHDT
Chain of D(1A) dopamine receptor (P18901 whole entry): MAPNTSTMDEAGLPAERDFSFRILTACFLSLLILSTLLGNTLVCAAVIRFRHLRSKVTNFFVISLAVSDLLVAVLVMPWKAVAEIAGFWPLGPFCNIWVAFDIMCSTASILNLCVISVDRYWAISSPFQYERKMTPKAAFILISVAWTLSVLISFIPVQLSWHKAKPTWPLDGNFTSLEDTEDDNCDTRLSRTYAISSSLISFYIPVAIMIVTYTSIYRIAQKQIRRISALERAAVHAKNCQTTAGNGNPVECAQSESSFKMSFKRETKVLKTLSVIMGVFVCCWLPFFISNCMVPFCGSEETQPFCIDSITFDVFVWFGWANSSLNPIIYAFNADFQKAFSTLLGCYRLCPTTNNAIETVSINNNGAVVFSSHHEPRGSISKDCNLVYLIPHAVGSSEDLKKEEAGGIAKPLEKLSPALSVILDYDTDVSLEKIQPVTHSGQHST
Chain of 5-hydroxytryptamine receptor 6 (P31388 whole entry): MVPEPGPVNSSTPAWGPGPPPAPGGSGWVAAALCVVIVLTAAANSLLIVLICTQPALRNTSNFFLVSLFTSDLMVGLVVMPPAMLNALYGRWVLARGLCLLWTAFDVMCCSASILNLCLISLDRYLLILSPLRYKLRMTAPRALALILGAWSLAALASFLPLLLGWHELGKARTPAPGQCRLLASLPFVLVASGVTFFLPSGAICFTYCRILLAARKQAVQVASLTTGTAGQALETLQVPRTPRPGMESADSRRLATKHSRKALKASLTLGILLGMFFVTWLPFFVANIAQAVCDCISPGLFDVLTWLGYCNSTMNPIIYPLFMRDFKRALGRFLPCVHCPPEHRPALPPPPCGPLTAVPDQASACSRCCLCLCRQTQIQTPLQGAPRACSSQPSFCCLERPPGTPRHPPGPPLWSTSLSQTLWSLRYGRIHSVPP
Chain of D(1B) dopamine receptor (P25115 whole entry): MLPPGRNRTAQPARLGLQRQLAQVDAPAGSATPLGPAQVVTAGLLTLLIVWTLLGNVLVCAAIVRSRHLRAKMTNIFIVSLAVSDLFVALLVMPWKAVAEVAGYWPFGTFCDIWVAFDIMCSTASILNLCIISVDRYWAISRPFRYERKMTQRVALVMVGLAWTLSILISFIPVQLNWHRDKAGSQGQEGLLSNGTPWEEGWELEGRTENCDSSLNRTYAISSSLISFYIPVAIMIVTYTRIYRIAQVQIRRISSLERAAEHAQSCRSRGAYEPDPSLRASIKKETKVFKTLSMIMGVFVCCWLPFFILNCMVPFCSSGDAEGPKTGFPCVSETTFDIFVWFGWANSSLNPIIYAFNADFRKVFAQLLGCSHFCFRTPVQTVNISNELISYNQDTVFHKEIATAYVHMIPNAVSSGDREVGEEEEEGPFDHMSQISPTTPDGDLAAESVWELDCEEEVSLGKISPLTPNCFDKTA

The term Ki denotes the equilibrium dissociation constant of an inhibitor or competing ligand from its target. For the compound `CCc1cc(Cl)c(OC)c(C(=O)NC[C@@H]2CCCN2CC)c1O` [3-Chloro-5-ethyl-N-((S)-1-ethyl-pyrrolidin-2-ylmethyl)-6-hydroxy-2-methoxy-benzamide], the Ki on D(3) dopamine receptor is 0.36 nM and 0.14 nM; at D(4) dopamine receptor, 64 nM.
Regarding `O=C1CCc2ccc(OCCCCN3CCN(c4cccc(Cl)c4Cl)CC3)cc2N1` [7-{4-[4-(2,3-dichlorophenyl)piperazin-1-yl]butoxy}-3,4-dihydroquinolin-2(1H)-one], in experiment [1], the Ki was 161 nM.
For the compound `Cc1c(O)ccc(N2CCN(CCCCOc3ccc4c(c3)NC(=O)CC4)CC2)c1C` [7-{4-[4-(4-hydroxy-2,3-dimethylphenyl)piperazin-1-yl]butoxy}-1,2,3,4-tetrahydroquinolin-2-one], the inhibition constant Ki is 4.5 nM and 1.63 nM on D(3) dopamine receptor; above 10000 nM on D(1B) dopamine receptor; 220 nM in experiment [2]; 460 nM at D(1A) dopamine receptor; 120 nM at D(4) dopamine receptor.
On to `Cc1cccc(N2CCN(CCCOc3ccc4ccc(=O)[nH]c4c3)CC2)c1C` [NSC_163839], for which the inhibition constant (Ki) at D(3) dopamine receptor was 18 nM and 81.7 nM; on D(1B) dopamine receptor it was above 10000 nM; in experiment [2] it was 22 nM; in experiment [1] it was 680 nM; on D(1A) dopamine receptor it was above 10000 nM; on D(4) dopamine receptor it was 280 nM.

The record behind these values is BindingDB's records for doi:10.1016/S0893-133X(98)00099-2 (University of North Carolina, 1999).
